The values that follow are results of earlier work, collected in patent US20190038640A1, “COMPOSITION, FORMULATIONS AND METHODS OF MAKING AND USING BOTANICALS AND NATURAL COMPOUNDS FOR THE PROMOTION OF HEALTHY BRAIN AGING” (THE BRAIN HEALTH PROJECT, LLC, priority 2013, published 2019).

Data set [1] relates to endometrium. The note with it: genistein aglycone 54 mg.
The conditions of data set [2]: 0.1-0.2 mg HupA twice daily, active group.
The conditions of data set [3]: in vivo.
In data set [4] the test system is beta amyloid. The note with it: AD transgenic mice.
Data set [5] has as its system alkaline phosphatase activity in the endometrium.

Consider `O=c1c(-c2ccc(O)cc2)coc2cc(O)cc(O)c12` [Genistein, genistein], for which, in data set [1], the “reduction of endometrial hyperplasia without atypia compared with norethisterone acetate” value is “as successful as”.
For `C/C=C1\[C@H]2C=C(C)C[C@]1(N)c1ccc(=O)[nH]c1C2` [Huperzine A], under “0.2 mg pure Huperzine A orally, healthy subjects”, the terminal half life entry is listed as “approximately 6 hours”. Further, the optimal plasma level (human, in vivo) was 0.6 ng/mL. Also, the “proportion of patients with a four point improvement on the ADAS-Cog” value in data set [2] was 56%.
`Cn1c(=O)c2c(ncn2C)n(C)c1=O` [caffeine]: in data set [3], the half life is 4 to 6 h and the “time to peak blood levels” value is reported as “within one hour”. In addition, in data set [4], the “reduction of beta amyloid deposition in the entorhinal cortex” value is listed as 46% and the “reduction of beta amyloid deposition in the hippocampus” value is 40%.
Regarding `O=c1c(-c2ccc(O)cc2)coc2cc(O)ccc12` [daidzein], the “potency of inducing alkaline phosphatase activity relative to estradiol” value in data set [5] was “one millionth”.
